Test results published in PMC7996082, “The translocator protein ligands as mitochondrial functional modulators for the potential anti-Alzheimer agents” (Journal of Enzyme Inhibition and Medicinal Chemistry, 2021).

Assays:
[1] = biological target: T1, CYP2C9 (Homo sapiens, UniProt P11712); experiment: CYP inhibition assay (Vivid CYP450 screening kit); assay type: in vitro ADME; conditions: 10 μM compound
T1 construct: purchased Invitrogen, Madison, WI, USA
Experimental: (§1) Human CYP450 (CYP1A2, 2D6, 2C9, 2C19, and 3A4) activities were determined by using the Vivid® CYP450 screening kit (Invitrogen, Madison, WI, USA) in a clear 96-well plate. Five positive controls were used as 10 mM solutions in MeCN for five different CYP450 enzymes: CYP1A2 (α-naphthoflavone), CYP2D6 (quinidine), CYP2C9 (sulfaphenazole), CYP2C19 (lansoprazole), and CYP3A4 (ketoconazole). Each sample (test compounds, positive inhibition controls, and solvent controls) was added into each well with the Master Pre-Mix [CYP450 BACULOSOMES® Reagent (recombinant human CYP450 isozyme and rabbit NADPHP450 reductase) and Regeneration System (3.3 mM glucose-6-phosphate and 0.3 U/ml glucose-6-phosphate dehydrogenase in 100 mM potassium phosphate, pH 8.0)]. The mixture was incubated for 5 min at 37 °C, and the Vivid® CYP substrates and 0.1 mM NADP^+ buffer were added to initiate the CYP450 enzyme reaction. The % remaining activities of CYP450 were measured after 20 min by using a fluorescent plate reader (Flexstation® 3, Molecular Devices, USA).

[2] = biological target: T2, CYP3A4 (Homo sapiens, UniProt P08684); experiment: CYP inhibition assay (Vivid CYP450 screening kit); assay type: in vitro ADME; conditions: 10 μM compound
T2 construct: purchased Invitrogen, Madison, WI, USA
Experimental: as §1

[3] = biological target: T3, CYP1A2 (Homo sapiens, UniProt P05177); experiment: CYP inhibition assay (Vivid CYP450 screening kit); assay type: in vitro ADME; conditions: 10 μM compound
T3 construct: purchased Invitrogen, Madison, WI, USA
T3 sequence (P05177 2-516 limits assumed): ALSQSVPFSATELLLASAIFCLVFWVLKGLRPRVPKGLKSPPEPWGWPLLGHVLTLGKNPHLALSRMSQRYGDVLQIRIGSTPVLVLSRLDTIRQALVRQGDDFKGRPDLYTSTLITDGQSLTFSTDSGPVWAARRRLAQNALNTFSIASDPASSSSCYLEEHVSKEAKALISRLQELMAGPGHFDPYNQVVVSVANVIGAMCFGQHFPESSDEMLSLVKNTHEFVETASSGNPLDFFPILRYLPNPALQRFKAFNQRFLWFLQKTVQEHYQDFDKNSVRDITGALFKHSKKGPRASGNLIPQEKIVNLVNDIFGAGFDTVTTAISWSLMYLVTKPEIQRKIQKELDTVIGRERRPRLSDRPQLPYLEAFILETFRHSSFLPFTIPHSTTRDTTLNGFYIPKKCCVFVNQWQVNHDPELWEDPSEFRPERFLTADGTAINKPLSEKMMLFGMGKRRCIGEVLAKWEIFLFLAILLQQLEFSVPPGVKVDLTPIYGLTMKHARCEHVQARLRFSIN
Experimental: as §1

[4] = biological target: T4, CYP2D6 (Homo sapiens, UniProt P10635); experiment: CYP inhibition assay (Vivid CYP450 screening kit); assay type: in vitro ADME; conditions: 10 μM compound
T4 construct: purchased Invitrogen, Madison, WI, USA
Experimental: as §1

[5] = Liver microsomal stability; assay type: in vitro ADME; conditions: human, liver microsomes, 1 µM compound, 0.5 mg/mL microsomes, 30 min, 37 °C; read-out: Human Liver Microsomal Stability (% remaining after 30 min)
Experimental: Liver microsomes (human, dog, rat, and mouse; 0.5 mg/mL) were incubated with 1 µM of each test compound in the presence of potassium phosphate buffer (PPB) for 5 min at 37 °C. A solution of the NADPH regeneration system (#44332000, Oriental Yeast Co., Japan) was added to begin metabolic reactions of liver microsomes. The resulting mixtures were incubated for 30 min at 37 °C, and the reaction was terminated by the addition of a cold MeCN solution containing an internal standard (chlorpropamide). The mixture was separated by centrifugation (14,000 rpm for 5 min at 4 °C), and the supernatant was analysed by LC-MS/MS (Shimadzu Nexera XR system and TSQ vantage; Thermo Scientific).

[6] = biological target: T5, hERG channel (Homo sapiens, UniProt Q12809); experiment: hERG inhibition assay (automated patch-clamp, CHO-K1 Tet-On hERG cells); assay type: cell-based; conditions: for hERG inhibition (in words): authors' grading of Table 6; for IC50: patch-clamp, ± SD
T5 construct: host or cells: CHO-K1 Tet-On hERG cells
Experimental: For automated patch-clamp NPC-16 Patchliner (Nanion Technologies, München, Germany) recordings, CHO-K1 Tet-On hERG cells (IonGate Biosciences GmbH, Frankfurt, Germany) were plated into 100-mm cell culture dishes. Whole-cell currents were recorded with the intracellular solution containing: 50 mM KCl, 60 mM KF, 10 mM NaCl, 2 mM MgCl2, 20 mM EGTA and 10 mM HEPES (pH 7.2), and with the extracellular solution containing: 140 mM NaCl, 4 mM KCl, 2 mM CaCl2, 1 mM MgCl2, 5 mM Glucose and 10 HEPES (pH 7.4). To assist stable seal formations, the seal enhancer containing: 80 mM NaCl, 3 mM KCl, 35 mM CaCl2, 10 mM MgCl2 and 10 mM HEPES (pH 7.4) was used only at the seal formation step. Prior to the whole-cell recordings, the external seal enhancing solution was exchanged to the extracellular solution described above. hERG channel currents were recorded using the parallel EPC-10 patch-clamp amplifiers (HEKA Elektronik, Lambrecht/Pfalz, Germany), and low-pass filtered (10 kHz) with a 4-pole Bessel filter. Cell suspension and patch solutions were automatically added onto the four recording wells in the microfabricated disposable chip (NPC-16 Chip, Nanion Technologies, München, Germany). To obtain the inhibitory constants, hERG tail currents were evoked by repolarizing steps to −50 mV for 500 ms preceded by a 500-ms depolarisation potential of +20 mV at a holding potential of −80 mV with a 20-s sweep interval. Whole-cell currents were acquired and digitised at 5 kHz using Patchmaster (HEKA Elektronik, Lambrecht/Pfalz, Germany). The extracellular solution was exchanged to the extracellular solution containing each blocker via four pipette tips of NPC-16 Patchliner using a 4-fold volume of solution (40 µL) with a speed of 4 µL/s, and the exchanged blocker solution was applied for 100–200 s to the patch-clamped cells until blocker binding had reached equilibrium by monitoring hERG tail currents. Whole-cell recordings were analysed using the Patchmaster/Fitmaster (HEKA Elektronik, Lambrecht/Pfalz, Germany), IGOR Pro (WaveMetrics Inc., Portland, OR, USA), and the GraphPad Prism 4.0 (GraphPad Software, Inc., La Jolla, CA, USA) software.

T1 sequence (P11712 whole entry): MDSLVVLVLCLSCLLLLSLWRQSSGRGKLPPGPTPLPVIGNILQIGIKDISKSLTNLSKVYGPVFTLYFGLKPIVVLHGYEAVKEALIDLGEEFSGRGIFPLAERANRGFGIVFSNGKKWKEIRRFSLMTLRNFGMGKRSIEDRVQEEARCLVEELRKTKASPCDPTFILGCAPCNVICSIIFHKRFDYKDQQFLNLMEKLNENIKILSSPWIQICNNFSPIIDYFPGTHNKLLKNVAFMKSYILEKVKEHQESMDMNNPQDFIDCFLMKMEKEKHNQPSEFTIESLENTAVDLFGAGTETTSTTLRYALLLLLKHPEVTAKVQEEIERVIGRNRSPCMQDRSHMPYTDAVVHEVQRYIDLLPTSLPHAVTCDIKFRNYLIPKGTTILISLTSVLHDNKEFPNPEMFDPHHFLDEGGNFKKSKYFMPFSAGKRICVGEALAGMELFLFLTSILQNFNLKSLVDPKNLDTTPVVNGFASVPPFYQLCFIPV
T2 sequence (P08684 2-503 limits assumed): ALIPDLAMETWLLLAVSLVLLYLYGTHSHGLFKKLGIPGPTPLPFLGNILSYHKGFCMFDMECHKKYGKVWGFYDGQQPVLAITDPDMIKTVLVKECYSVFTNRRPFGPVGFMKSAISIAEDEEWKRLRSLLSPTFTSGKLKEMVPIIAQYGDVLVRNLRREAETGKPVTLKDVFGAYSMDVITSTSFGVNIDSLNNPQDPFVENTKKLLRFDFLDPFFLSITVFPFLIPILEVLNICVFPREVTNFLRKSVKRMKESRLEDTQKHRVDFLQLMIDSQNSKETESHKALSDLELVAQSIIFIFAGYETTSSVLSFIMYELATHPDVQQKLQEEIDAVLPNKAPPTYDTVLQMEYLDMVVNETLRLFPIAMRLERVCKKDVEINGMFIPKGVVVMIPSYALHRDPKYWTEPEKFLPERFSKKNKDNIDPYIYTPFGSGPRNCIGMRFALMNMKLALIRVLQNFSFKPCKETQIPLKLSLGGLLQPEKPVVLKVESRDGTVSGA
T4 sequence (P10635 whole entry): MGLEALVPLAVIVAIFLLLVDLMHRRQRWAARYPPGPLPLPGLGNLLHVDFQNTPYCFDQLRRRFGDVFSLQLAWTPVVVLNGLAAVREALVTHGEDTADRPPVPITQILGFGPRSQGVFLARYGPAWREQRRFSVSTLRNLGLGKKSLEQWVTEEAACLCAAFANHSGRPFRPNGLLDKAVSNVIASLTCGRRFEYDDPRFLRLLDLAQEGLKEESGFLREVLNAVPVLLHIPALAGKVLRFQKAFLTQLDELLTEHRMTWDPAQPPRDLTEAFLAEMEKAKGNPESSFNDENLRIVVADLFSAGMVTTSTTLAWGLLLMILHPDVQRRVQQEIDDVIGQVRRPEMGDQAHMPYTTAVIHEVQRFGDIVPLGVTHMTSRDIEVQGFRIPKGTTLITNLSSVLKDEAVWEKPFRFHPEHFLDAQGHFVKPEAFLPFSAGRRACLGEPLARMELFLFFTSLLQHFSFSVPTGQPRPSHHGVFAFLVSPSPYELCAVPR
T5 sequence (Q12809 whole entry): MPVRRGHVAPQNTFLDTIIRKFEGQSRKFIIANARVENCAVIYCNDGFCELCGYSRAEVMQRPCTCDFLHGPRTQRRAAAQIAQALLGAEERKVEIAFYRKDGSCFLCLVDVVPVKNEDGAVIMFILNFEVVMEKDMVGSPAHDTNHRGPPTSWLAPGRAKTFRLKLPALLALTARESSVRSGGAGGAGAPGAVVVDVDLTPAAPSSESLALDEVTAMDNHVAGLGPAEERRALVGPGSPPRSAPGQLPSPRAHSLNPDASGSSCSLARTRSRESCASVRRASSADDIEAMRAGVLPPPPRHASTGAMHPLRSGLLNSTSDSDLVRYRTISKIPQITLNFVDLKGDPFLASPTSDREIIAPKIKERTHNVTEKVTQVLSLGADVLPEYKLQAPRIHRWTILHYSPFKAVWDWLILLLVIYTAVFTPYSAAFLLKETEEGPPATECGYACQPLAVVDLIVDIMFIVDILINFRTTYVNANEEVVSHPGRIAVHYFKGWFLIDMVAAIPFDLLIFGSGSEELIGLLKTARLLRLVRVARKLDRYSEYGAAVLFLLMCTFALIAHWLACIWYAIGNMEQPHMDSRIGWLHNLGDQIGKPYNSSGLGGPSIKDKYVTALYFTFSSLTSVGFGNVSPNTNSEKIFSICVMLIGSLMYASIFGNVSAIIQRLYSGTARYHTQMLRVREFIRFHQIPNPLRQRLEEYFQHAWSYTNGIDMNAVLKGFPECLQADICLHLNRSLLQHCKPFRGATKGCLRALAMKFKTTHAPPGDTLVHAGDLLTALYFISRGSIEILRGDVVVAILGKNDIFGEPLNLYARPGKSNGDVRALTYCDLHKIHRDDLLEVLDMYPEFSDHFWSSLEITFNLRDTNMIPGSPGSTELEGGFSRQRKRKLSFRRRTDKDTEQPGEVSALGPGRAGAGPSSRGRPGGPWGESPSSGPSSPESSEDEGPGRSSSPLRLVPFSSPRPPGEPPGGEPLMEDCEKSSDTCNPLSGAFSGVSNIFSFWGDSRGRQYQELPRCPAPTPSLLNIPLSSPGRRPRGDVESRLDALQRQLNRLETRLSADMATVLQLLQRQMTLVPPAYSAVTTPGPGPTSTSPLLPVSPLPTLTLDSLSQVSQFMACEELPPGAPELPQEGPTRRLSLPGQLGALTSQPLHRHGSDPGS

| SMILES | CYP450 (% remaining Activity at 10 μM) CYP2C9 [1] [%] | CYP450 (% remaining Activity at 10 μM) CYP3A4 [2] [%] | CYP450 (% remaining Activity at 10 μM) CYP1A2 [3] [%] | CYP450 (% remaining Activity at 10 μM) CYP2D6 [4] [%] | remaining at 0.5 h, 1 µM [5] [%] | hERG inhibition (in words) [6] | IC50 [6] [µM] |
| --- | --- | --- | --- | --- | --- | --- | --- |
| CCOc1ccc(-n2c(SCC(=O)NCc3ccccc3)nc3sc4c(c3c2=O)CCN(C(C)=O)C4)cc1 [Compound 31] | 51.1 | 18.3 | 143.1 | 88.1 | 32.7 | low hERG inhibition | 8.8 ± 2.36 |
| CCOc1ccc(-n2c(SCC(=O)N3CCN(c4ccccc4)CC3)nc3sc4c(c3c2=O)CCN(C(C)=O)C4)cc1 [Compound 44] | 84.4 | 72.2 | 92.0 | 117.3 | 15.3 | low hERG inhibition | 8.9 ± 0.22 |
| CCOc1ccc(-n2c(SCC(=O)NCc3ccccc3)nc3sc4c(c3c2=O)CCN(C)C4)cc1 [Compound 49] | 99.6 | 28.1 | 95.3 | 43.1 | 87.9 | low hERG inhibition | 15 ± 4.24 |
| CCOc1ccc(-n2c(SCC(=O)Nc3ccc(OC)c(OC)c3)nc3sc4c(c3c2=O)CCN(C(C)=O)C4)cc1 [Compound 7] | 72.5 | 69.9 | 69.0 | 83.3 | 49.6 | – | 19.5 ± 4.43 |
| CCOc1ccc(-n2c(SCC(=O)N(C)Cc3ccccc3)nc3sc4c(c3c2=O)CCN(C)C4)cc1 [Compound 50] | 66.4 | 36.5 | 97.3 | 30.0 | 73.1 | low hERG inhibition | 10.6 ± 0.97 |
| CCOc1ccc(-n2c(SCC(=O)NC3CCN(C)CC3)nc3sc4c(c3c2=O)CCN(C(C)=O)C4)cc1 [Compound 30] | 93.0 | 31.0 | 119.7 | 118.5 | 99.1 | low hERG inhibition | 12.3 ± 1.25 |
